According to US8236963B2, “Tricyclic spiro derivatives as CRTH2 modulators” (Merck Serono SA, priority 2005, dated 2012):

What was measured:
[1] = test system: DK-PGD2-induced vascular leakage; test: Model of DK-PGD2-induced vascular leakage in mice; format: in vivo, Balb/c mice; details: Mus musculus, 1.5 h; dose of 30 mg/kg; 30 min before DK-PGD2 challenge; Evans blue extravasation
Experimental: This test is described in Takeshita et al. (2004). Balb/c mice (Elevage Janvier) (8 week old) received an intradermal injection of DK-PGD2 (10 μg in 30 μl) on their shaved backs and an intravenous injection of Evans blue solution (25 mg/kg) 30 min after administration of the test molecules (spiro derivative). Ninety minutes after the challenge, the animals were sacrificed. The skin of the back was removed and blood was sampled. The extravasated dye (punch diameter: 5 mm) was extracted by 0.2 ml of formamide and was quantified by fluorescence (E1: 585 nm, E2: 660 nm). The Evans Blue extravasation ratio was expressed as the following: skin/serum×1000.

[2] = test system: DNFB-induced ear swelling; test: CHS model (contact hypersensitivity to DNFB, ear swelling); format: in vivo, Balb/c mice; details: 60 mg/kg; po; 30 min before DNFB challenge; ear thickness on day 6
From the text: The contact hypersensitivity model can be used to evaluate the therapeutic efficacy of spiro derivatives on skin inflammation mediated by T cells. The model is well established for characterization of compound for dermatological indications like psoriasis and allergic contact dermatitis (Xu et al. J Exp Med. 183, 1001-12, 1996). It involves a sensitization phase and a subsequent challenge with an antigen (DNFB, 2,4-dinitrofluorbenzene). […] The edema can be measured by caliper at the challenged site (ear of the mice). Intravenous or oral administration with 10% Labrasol as vehicle of the compounds of the invention 30 min before challenge with DNFB results in a decrease of the swelling and therefore reduces inflammation in the skin compared to positive controls treated with vehicle only before challenge with the antigen. Negative control mice are not sensitized, but challenged with DNFB, therefore no T cell dependent inflammation occurs and no edema is formed. Balb/c mice were obtained from CharlesRiver (Calcco, Italy). […]
Mice were sensitized and challenged to elicit CHS to DNFB. […] Ear thickness was monitored on day 6 (1 day after challenge) using a caliper (Mitutoyo, Milan, Italy). Ear swelling was calculated as ((Tn−T5)right ear−(Tn−T5)left ear), wherein Tn and T5 represent values of ear thickness at day n of investigation and day 5 prior to challenge, respectively.

[3] = target: T1, CRTH2 (Homo sapiens, UniProt Q9Y5Y4); test: Determination of Ki (radioligand binding assay, equilibrium competition against [3H]PGD2); design: expressed in transfected cells; host or cells: HEK293 (EBNA) cells, membrane preparation; details: average of at least three independent dose response experiments
T1 sequence (Q9Y5Y4 1-395): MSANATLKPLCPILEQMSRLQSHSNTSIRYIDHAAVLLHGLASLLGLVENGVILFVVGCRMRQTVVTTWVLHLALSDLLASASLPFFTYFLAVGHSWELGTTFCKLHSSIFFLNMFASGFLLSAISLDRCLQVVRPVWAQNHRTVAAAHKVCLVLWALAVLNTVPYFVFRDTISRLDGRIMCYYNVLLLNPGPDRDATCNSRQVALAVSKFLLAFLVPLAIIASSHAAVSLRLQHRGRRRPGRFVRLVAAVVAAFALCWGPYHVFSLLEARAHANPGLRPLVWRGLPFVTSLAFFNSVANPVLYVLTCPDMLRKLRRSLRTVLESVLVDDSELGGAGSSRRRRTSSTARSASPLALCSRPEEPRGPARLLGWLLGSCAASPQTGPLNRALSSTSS
Method in brief: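 Equilibrium competition against 1.5 nM [3H]PGD2 on hCRTH2-expressing HEK293 (EBNA) membranes (10 μg), HEPES/KOH pH 7.4 with MnCl2, 1% DMSO, 60 min at room temperature; nonspecific binding with 1 μM PGD2. Filtration and scintillation counting; Ki = IC50/(1+[L]/Kd), mean of ≥3 dose-response experiments.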

[4] = target: T1, CRTH2; test: Radioligand binding assay ([3H]PGD2, hCRTH2 HEK293 (EBNA) cell membranes); design: expressed in transfected cells; host or cells: HEK293 (EBNA) cells, membrane preparation; details: 1.5 nM [3H]PGD2, 10 μg hCRTH2 HEK293 (EBNA) membrane protein, 60 min at room temperature
From the text: Human CRTH2 cDNA was amplified by PCR using a human urinary bladder cDNA library as a template and specific primers containing HindIII and BamHI restriction sites for cloning into the pCEP4 vector (Invitrogen). The vector construction is described in detail in Sawyer et al., Br. J. Pharmocol 2002, 137, 1163-72. The nucleotide sequence of the cloned cDNA was identical the previously reported hCRTH2 sequence (Nagata et al, 1999, J. Immunol. 162, 1278-1286).
HEK293 (EBNA) cells were transfected with the pCEP4-hCRTH2 construct using the calcium phosphate technique. Cells were maintained in culture at 37° C. in an atmosphere of 5% CO2 in Dulbecco's modified Eagle's F12 medium (Invitrogen), containing 10% heat-inactivated foetal calf serum (TerraCell International, Canada), 2 mM Glutamine, 100 units/ml of penicillin and 100 μg/ml streptomycin (Invitrogen). 48 hours after the transfection, cells were grown in presence of 300 μg/ml of Hygromycin B (Invitrogen) for 4 weeks and antibiotic resistant cells were amplified for cell membrane preparation.
Adherent HEK293 (EBNA) cells expressing hCRTH2 were cultured in 225 cm^2 cell culture flasks (Corning, USA) in 30 ml of medium. After two rinses of phosphate buffered saline (PBS), cells were harvested in 10 ml of PBS containing 1 mM EDTA, centrifuged at 500×g for 5 min at 4° C. and frozen at −80° C. The pellet was re-suspended in 50 mM Tris-HCl, pH 7.4, 2 mM EDTA, 250 mM Sucrose, containing protease inhibitor cocktail tablets, (Complete EDTA-free, Roche, Germany) and incubated 30 min at 4° C. Cells were disrupted by nitrogen cavitation (Parr Instruments, USA) at 4° C. (800 p.s.i. for 30 min), and centrifuged at 500×g for 10 min at 4° C. Pellet containing nuclei and cellular debris was discarded and supernatant was centrifuged 60 min at 4° C. at 45000×g. Membrane pellet was re-suspended in storage buffer (10 mM HEPES/KOH pH 7.4, 1 mM EDTA, 250 mM sucrose, protease inhibitor cocktail tablets) using Dounce homogenization and frozen in liquid nitrogen, and stored at −80° C.
The inhibitory activity can be investigated by a radioligand binding assay (Sawyer et al., Br. J. Pharmocol 2002, 137, 1163-72). The radioligand binding assay was performed at room temperature in binding buffer (10 mM HEPES/KOH pH […], with protease inhibitor cocktail tablets), containing 1.5 nM [^3H]PGD2 (Amersham, 156 Cie/mmol), and 10 μg of hCRTH2 HEK293 (EBNA) cell membrane protein in a final volume of 100 μl in 96 well plates (Corning, USA). Non-specific binding was determined in the presence of 1 μM PGD2 (Cayman, USA). Competing spiro-indolinones were diluted in dimethylsulphoxide so that the total volume of dimethylsulfoxide was kept constant at 1% dimethylsulphoxide (Me2SO) Serial dilutions of 100 μM and […] were prepared. 10 μl each of these spiro-indolinone stock solutions were added. Incubation (60 min at room temperature) was terminated by rapid filtration through 96 wells hydrophobic GF/C Unifilter plates (Whatman, USA). Filters were washed twice with 250 μl of Tris-HCl pH 7.4, 10 mM MnCl2, and residual radioligand bound to the filters was mixed to 100 μl of liquid scintillation cocktail (Optiphase Supermix, Perkin Elmer, USA) and binding activity was determined by counting residual radioligand using a 1450 Micro-beta scintillation counter (Wallac, UK). The following representative compounds were tested. […]

Ki [3] [nM]	inhibition [4] [%]	melting point [°C]	SMILES	inhibition in vivo at 30 mg/kg [1] [%]	reduction in ear swelling [2] [%]
–	–	–	O=C(O)CN1C(=O)[C@]2(CC(=O)N(Cc3cccc(Cl)c3)C2=O)c2cc(Cl)ccc21 [Compound 83, (3S)-[5-chloro-1′-(3-chlorobenzyl)-2,2′,5′-trioxospiro[indole-3,3′-pyrrolidin]-1(2H)-yl]acetic acid]	77	40
16	–	–	O=C(O)CN1C(=O)C2(NC(=O)N(Cc3cc(Cl)ccc3F)C2=O)c2cc(Cl)ccc21 (stereo not drawn) [Compound 105, [5′-chloro-1-(5-chloro-2-fluorobenzyl)-2,2′,5-trioxospiro[imidazolidine-4,3′-indol]-1′(2′H)-yl]acetic acid]	60	55
–	> 70	205 to 207	O=C(O)CN1C(=O)C2(CC(=O)N(Cc3ccccc3)C2=O)c2cc(Cl)ccc21 (stereo not drawn) [Example 12, (1′-Benzyl-5-chloro-2,2′,5′-trioxo-spiro[indole-3,3′-pyrrolidin]-1-yl)acetic acid]	–	–
22	–	–	O=C(O)CN1C(=O)C2(CC(=O)N(Cc3cc(Cl)ccc3F)C2)c2cc(Cl)ccc21 (stereo not drawn) [Compound 116, [5-chloro-1′-(5-chloro-2-fluorobenzyl)-2,5′-dioxospiro[indole-3,3′-pyrrolidin]-1(2H)-yl]acetic acid]	51	–
